pKi: −log10 of the molar value. Where a name gives a salt, the structure may show the parent alone. Read-outs that look alike come from different tables or passages of the source.
Target: human GlyT1c transporter (Homo sapiens (Human), UniProt P48067)
Test: Radioligand binding assay using recombinant CHO cell membranes expressing human GlyT1
Settings: examples 88-204, radioligand not specified by footnote, read-out: radioligand binding Kiapp
Description: 2. Radioligand binding assays using recombinant CHO cell membranes expressing human GlyT1:
Radioligand binding to human GlyT1c transporter-expressing membranes was carried out as described in Mezler et al., Molecular Pharmacology 74:1705-1715, 2008.
More specifically, [^3H]-(R)-NPTS radioligand binding to human GlyT1c transporter-expressing membranes was measured in duplicate in a total volume of 200 μl in 96-well plates. To 100 μl of membrane suspension (yielding a final membrane protein concentration of 50 μg/ml) in assay buffer (120 mM NaCl, 2 mM KCl, 10 mM Hepes, 1 mM MgCl2, 1 mM CaCl2, pH 7.5) […] of [^3H]-(R)-NPTS (0.5 nM final) were added in assay buffer. For competition experiments 10 μl of buffer or unlabeled compound solution obtained from dilution series of test compounds in DMSO followed. An intermediate 1:10 dilution in assay buffer yielded a final DMSO concentration of 1%. Non-specific binding was determined in the presence of 10 μM Org24598 (or its racemate Org24461) for [^3H]-(R)-NPTS. After incubation at room temperature for 1 h, the incubation mixture was harvested (Tomtec Mach III U Harvester) through 96-well GF/B filter plates (PerkinElmer), presoaked for 1 h with 40 μl per well of 0.1% polyethylene-imine (PEI). After washing twice with ice-cold 50 mM Tris-HCl pH 7.4 buffer, drying and addition of 35 μl scintillator (BetaplateScint, PerkinElmer) per well followed. The radioactivity was determined by liquid scintillation spectrometry in a MicroBeta (PerkinElmer) plate counter.
Data analysis: For binding of [^3H]-(R)-NPTS to cell membranes, the calculation of Kd and Bmax values from the saturation binding assays and the IC50 values from the displacement binding was performed by iterative non-linear regression analysis adapted from the ‘Ligand’ program (Munson and Rodbard, 1980). Radioligand displacement curves in absence or in presence of increasing concentrations of tested compounds were fitted using a one-site fit and the apparent Ki values were calculated from the IC50 values using the Cheng-Prusoff equation (Cheng and Prusoff 1973).

Sequence of human GlyT1c transporter (P48067 whole entry): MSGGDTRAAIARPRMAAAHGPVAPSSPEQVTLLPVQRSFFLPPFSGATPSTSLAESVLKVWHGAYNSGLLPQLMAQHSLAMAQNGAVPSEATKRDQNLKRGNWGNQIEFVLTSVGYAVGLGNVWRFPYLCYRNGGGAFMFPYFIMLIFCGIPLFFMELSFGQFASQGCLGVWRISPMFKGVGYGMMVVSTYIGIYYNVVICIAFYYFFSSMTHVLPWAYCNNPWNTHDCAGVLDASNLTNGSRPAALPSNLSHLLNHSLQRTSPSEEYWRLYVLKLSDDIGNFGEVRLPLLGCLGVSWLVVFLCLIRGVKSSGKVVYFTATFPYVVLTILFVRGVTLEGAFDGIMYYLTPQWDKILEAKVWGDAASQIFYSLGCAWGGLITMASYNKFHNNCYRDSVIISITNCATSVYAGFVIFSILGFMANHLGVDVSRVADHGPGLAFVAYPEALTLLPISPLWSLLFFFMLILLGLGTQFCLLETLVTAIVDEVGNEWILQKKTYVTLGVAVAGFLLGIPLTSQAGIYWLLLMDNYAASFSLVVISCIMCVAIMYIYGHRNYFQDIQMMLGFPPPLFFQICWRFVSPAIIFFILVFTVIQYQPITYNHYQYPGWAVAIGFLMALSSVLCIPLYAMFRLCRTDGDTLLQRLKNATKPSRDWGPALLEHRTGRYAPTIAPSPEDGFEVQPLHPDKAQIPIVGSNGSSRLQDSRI

pKi | SMILES | pKi (hydrochloride)
≥ 6.00 | CNc1nnc(S(=O)(=O)NCCOc2ccc3c(c2)C(C2(c4ccc(Cl)cc4)CCC2)NCC3)s1 (centres unmarked) [Example 162, N-[2-({1-[1-(4-Chlorophenyl)cyclobutyl]-1,2,3,4-tetrahydroisoquinolin-7-yl}oxy)ethyl]-5-(methylamino)-1,3,4-thiadiazole-2-sulfonamide hydrochloride] | 
≥ 6.00 | O=S(=O)(CCN1CCCCC1)NCCOc1ccc2c(c1)C(C1(c3ccc(Cl)cc3)CCC1)NCC2 (centres unmarked) [Example 161, N-[2-({1-[1-(4-Chlorophenyl)cyclobutyl]-1,2,3,4-tetrahydroisoquinolin-7-yl}oxy)ethyl]-2-(piperidin-1-yl)ethanesulfonamide (2E)-but-2-enedioate] | 
≥ 5.00 | CCCS(=O)(=O)NCc1ccc2c(c1)C(C1(c3ccccn3)CCC1)NCC2 (centres unmarked) [Example 125, N-({1-[1-(Pyridin-2-yl)cyclobutyl]-1,2,3,4-tetrahydroisoquinolin-7-yl}methyl)propane-1-sulfonamide trifluoroacetate] | 
 | O=S(=O)(NCCOc1ccc2c(c1)[C@H](C1(c3ccc(Cl)cc3)CCC1)NCC2)c1cccnc1 [Example 141, N-[2-({(1S)-1-[1-(4-Chlorophenyl)cyclobutyl]-1,2,3,4-tetrahydroisoquinolin-7-yl}oxy)ethyl]pyridine-3-sulfonamide hydrochloride] | ≥ 7.00
≥ 7.00 | Cn1cc(S(=O)(=O)NCc2ccc3c(c2)C(C(C)(C)c2ccc(Cl)cc2)NCC3)cn1 (centres unmarked) [Example 100, N-({1-[2-(4-Chlorophenyl)propan-2-yl]-1,2,3,4-tetrahydroisoquinolin-7-yl}methyl)-1-methyl-1H-pyrazole-4-sulfonamide hydrochloride] | 
≥ 6.00 | O=S(=O)(NCCOc1ccc2c(c1)C(C1(c3ccc(Cl)cc3)CCC1)NCC2)C1CCCNC1 (single isomer, unassigned) [Example 164, N-[2-({1-[1-(4-Chlorophenyl)cyclobutyl]-1,2,3,4-tetrahydroisoquinolin-7-yl}oxy)ethyl]piperidine-3-sulfonamide dihydrochloride] | 
≥ 7.00 | CCCS(=O)(=O)NCC(=O)Nc1ccc2c(c1)C(C1(c3ccc(Cl)cc3)CCC1)NCC2 (centres unmarked) [Example 99, N-{1-[1-(4-Chlorophenyl)cyclobutyl]-1,2,3,4-tetrahydroisoquinolin-7-yl}-N˜2˜-(propylsulfonyl)glycinamide hydrochloride] | 
≥ 5.00 | O=S(=O)(NCCOc1ccc2c(c1)C(C1(c3ccc(Cl)cc3)CCC1)NCC2)C1CCCNC1 (single isomer, unassigned) [Example 193, N-[2-({1-[1-(4-Chlorophenyl)cyclobutyl]-1,2,3,4-tetrahydroisoquinolin-7-yl}oxy)ethyl]piperidine-3-sulfonamide dihydrochloride] | 
≥ 5.00 | CC(=O)Nc1ncc(S(=O)(=O)NCCOc2ccc3c(c2)C(C2(c4ccc(Cl)cc4)CCC2)NCC3)s1 (centres unmarked) [Example 188, N-(5-{[2-({1-[1-(4-Chlorophenyl)cyclobutyl]-1,2,3,4-tetrahydroisoquinolin-7-yl}oxy)ethyl]sulfamoyl}-1,3-thiazol-2-yl)acetamide hydrochloride] | 
≥ 5.00 | O=S(=O)(Nc1ccccc1Oc1ccc2c(c1)C(C1(c3ccc(Cl)cc3)CCC1)NCC2)c1cccnc1 (centres unmarked) [Example 122, N-[2-({1-[1-(4-Chlorophenyl)cyclobutyl]-1,2,3,4-tetrahydroisoquinolin-7-yl}oxy)phenyl]pyridine-3-sulfonamide dihydrochloride] | 
≥ 7.00 | Cn1cnc(S(=O)(=O)NCc2ccc3c(c2)C(C2(c4ccc(Cl)cc4)CCC2)NCC3)c1 (centres unmarked) [Example 93, N-({1-[1-(4-Chlorophenyl)cyclobutyl]-1,2,3,4-tetrahydroisoquinolin-7-yl}methyl)-1-methyl-1 H-imidazole-4-sulfonamide hydrochloride] | 
≥ 6.00 | Cn1cc(S(=O)(=O)NCC(=O)Nc2ccc3c(c2)C(C2(c4ccc(Cl)cc4)CCC2)NCC3)cn1 (centres unmarked) [Example 113, N-{1-[1-(4-Chlorophenyl)cyclobutyl]-1,2,3,4-tetrahydroisoquinolin-7-yl}-N˜2˜-[(1-methyl-1H-pyrazol-4-yl)sulfonyl]glycinamide hydrochloride] | 
≥ 6.00 | CC(C)NCCS(=O)(=O)NCCOc1ccc2c(c1)C(C1(c3ccc(Cl)cc3)CCC1)NCC2 (centres unmarked) [Example 169, N-[2-({1-[1-(4-Chlorophenyl)cyclobutyl]-1,2,3,4-tetrahydroisoquinolin-7-yl}oxy)ethyl]-2-(propan-2-ylamino)ethanesulfonamide] | 
≥ 7.00 | O=S(=O)(CCC(F)(F)F)NCCOc1ccc2c(c1)C(C1(c3ccc(Cl)cc3)CCC1)NCC2 (centres unmarked) [Example 144, N-[2-({1-[1-(4-Chlorophenyl)cyclobutyl]-1,2,3,4-tetrahydroisoquinolin-7-yl}oxy)ethyl]-3,3,3-trifluoropropane-1-sulfonamide hydrochloride] | 
≥ 5.00 | O=S(=O)(Nc1ccc(Oc2ccc3c(c2)C(C2(c4ccc(Cl)cc4)CCC2)NCC3)nc1)c1cccs1 (centres unmarked) [Example 124, N-[6-({1-[1-(4-Chlorophenyl)cyclobutyl]-1,2,3,4-tetrahydroisoquinolin-7-yl}oxy)pyridin-3-yl]thiophene-2-sulfonamide dihydrochloride] | 
≥ 7.00 | CCCS(=O)(=O)NCCOc1ccc2c(c1)C(C1(c3ccccn3)CCC1)NCC2 (centres unmarked) [Example 98, N-[2-({1-[1-(Pyridin-2-yl)cyclobutyl]-1,2,3,4-tetrahydroisoquinolin-7-yl}oxy)ethyl]propane-1-sulfonamide dihydrochloride] | 
≥ 5.00 | O=S(=O)(CC1CC1)NCc1ccc2c(c1)C(C1(c3ccccn3)CCC1)NCC2 (centres unmarked) [Example 134, 1-Cyclopropyl-N-({1-[1-(pyridin-2-yl)cyclobutyl]-1,2,3,4-tetrahydroisoquinolin-7-yl}methyl)methanesulfonamide trifluoroacetate] | 
≥ 7.00 | CCCS(=O)(=O)NCCOc1ccc2c(c1)C(C1(c3cccc(Cl)n3)CCC1)NCC2 (centres unmarked) [Example 105, N-[2-({1-[1-(6-Chloropyridin-2-yl)cyclobutyl]-1,2,3,4-tetrahydroisoquinolin-7-yl}oxy)ethyl]propane-1-sulfonamide dihydrochloride] | 
≥ 5.00 | O=S(=O)(Nc1cccnc1Oc1ccc2c(c1)C(C1(c3ccc(Cl)cc3)CCC1)NCC2)c1cccs1 (centres unmarked) [Example 127, N-[2-({1-[1-(4-Chlorophenyl)cyclobutyl]-1,2,3,4-tetrahydroisoquinolin-7-yl}oxy)pyridin-3-yl]thiophene-2-sulfonamide dihydrochloride] | 
≥ 6.00 | O=C(OCc1ccccc1)N1CCC(S(=O)(=O)NCCOc2ccc3c(c2)C(C2(c4ccc(Cl)cc4)CCC2)NCC3)C1 (centres unmarked) [Example 170, Benzyl 3-{[2-({1-[1-(4-chlorophenyl)cyclobutyl]-1,2,3,4-tetrahydroisoquinolin-7-yl}oxy)ethyl]sulfamoyl}pyrrolidine-1-carboxylate] | 
≥ 5.00 | O=S(=O)(NCCOc1ccc2c(c1)C(C1(c3ccc(Cl)cc3)CCC1)NCC2)c1ccc(N2CCOCC2)nc1 (centres unmarked) [Example 189, N-[2-({1-[1-(4-Chlorophenyl)cyclobutyl]-1,2,3,4-tetrahydroisoquinolin-7-yl}oxy)ethyl]-6-(morpholin-4-yl)pyridine-3-sulfonamide hydrochloride] | 
≥ 5.00 | CCCS(=O)(=O)Nc1cccnc1Oc1ccc2c(c1)C(C1(c3ccc(Cl)cc3)CCC1)NCC2 (centres unmarked) [Example 128, N-[2-({1-[1-(4-Chlorophenyl)cyclobutyl]-1,2,3,4-tetrahydroisoquinolin-7-yl}oxy)pyridin-3-yl]propane-1-sulfonamide dihydrochloride] | 
≥ 7.00 | O=S(=O)(CCCF)NCCOc1ccc2c(c1)C(C1(c3ccc(Cl)cc3)CCC1)NCC2 (centres unmarked) [Example 140, N-[2-({1-[1-(4-Chlorophenyl)cyclobutyl]-1,2,3,4-tetrahydroisoquinolin-7-yl}oxy)ethyl]-3-fluoropropane-1-sulfonamide hydrochloride] | 
≥ 5.00 | N#Cc1ccc2c(c1)C(C1(c3ccccn3)CCC1)NCC2 (centres unmarked) [Example 129, 1-[1-(Pyridin-2-yl)cyclobutyl]-1,2,3,4-tetrahydroisoquinoline-7-carbonitrile hydrochloride] | 
≥ 5.00 | CCCS(=O)(=O)N(CCN)CCOc1ccc2c(c1)C(C1(c3ccc(Cl)cc3)CCC1)NCC2 (centres unmarked) [Example 174, N-(2-Aminoethyl)-N-[2-({1-[1-(4-chlorophenyl)cyclobutyl]-1,2,3,4-tetrahydroisoquinolin-7-yl}oxy)ethyl]propane-1-sulfonamide dihydrochloride] | 
≥ 7.00 | CCCS(=O)(=O)NCc1ccc2c(c1)C(C(C)(C)c1ccc(Cl)cc1)NCC2 (centres unmarked) [Example 96, N-({1-[2-(4-Chlorophenyl)propan-2-yl]-1,2,3,4-tetrahydroisoquinolin-7-yl}methyl)propane-1-sulfonamide hydrochloride] | 
